Test results: patent US7517998B2, “Non nucleoside reverse transcriptase inhibitors” (priority 2004, dated 2009)

Target: T1, K103NNY181C mutant reverse transcriptase (Human immunodeficiency virus type 1 group M subtype B, UniProt P04585, K690N/Y768C)
T1 construct: mutations that occur in the reverse transcriptase segment of the pol gene
Experiment: Reverse transcriptase enzymatic assay (PicoGreen), K103N/Y181C mutant RT
Format: biochemical, HIV-1
Settings: enzymatic assay of Example 24
How it was run: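 HIV-1 RT (2.5 nM final) pre-incubated 15 min at room temperature with inhibitor, then reacted 50 min at 37 °C with poly rC 45 nM, dG15 4.5 nM, dGTP 3.6 μM in Tris/HCl pH 7.8, 1% DMSO. Final inhibitor 10 μM to 0.508 nM; EDTA-quenched, PicoGreen fluorescence read at 485/520 nm.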

[1] = IC50 mut, K103N/Y181C mutant reverse transcriptase
[2] = IC50 mut (nM), mutant (K103N/Y181C) reverse transcriptase
[3] = IC50 mut, mutant reverse transcriptase

| Structure (SMILES) | IC50 [1] [nM] | IC50 [3] [nM] | other results |
| --- | --- | --- | --- |
| CC(C)(C)c1ccc(-n2nnnc2SCC(=O)Nc2ccc(C#CCCCOC(N)=O)cc2Cl)c(Cl)c1 [Compound 4061] | 16 |  |  |
| CC(C)(C)c1ccc(-n2nnnc2SCC(=O)Nc2ccc(C#CCN3CCOCC3)cc2Cl)c(Cl)c1 [Compound 4010] | 27 |  |  |
| CC(C)(C#Cc1ccc(NC(=O)CSc2nnnn2-c2cc(C(C)(C)C)ccc2Cl)c(Cl)c1)C(=O)O [Compound 4200] | 35.5 |  |  |
| CC(C(=O)O)C(=O)NC(C)(C)C#Cc1ccc(NC(=O)CSc2nnnn2-c2ccc(C3CC3)cc2Cl)c(Cl)c1 (stereo not shown) [Compound 4234] | 15.5 |  |  |
| CC(C)(C#Cc1ccc(NC(=O)CSc2nnnn2-c2ccc(C3CC3)cc2Cl)c(Cl)c1)NC(=O)CN1CCC(C(=O)O)CC1 [Compound 4154] | 10.5 |  |  |
| CC(C)(C)c1ccc(-n2nnnc2SCC(=O)Nc2ccc(C#CC3CC3)cc2Cl)c(Cl)c1 [Compound 4032] | 39 |  |  |
| CC(C)(C)c1ccc(-n2nnnc2SCC(=O)Nc2ccc(NC(=O)c3ccc(C(=O)O)cc3)cc2Cl)c(Cl)c1 [Compound 7029] |  |  | IC50 [2]: 88 nM |
| Cc1ccc(-n2nnnc2SCC(=O)Nc2ccc(-c3ccc(CCO)cc3)cc2Cl)c(Cl)c1 [Compound 2009] |  | 28 |  |
| CC(C)(C)c1ccc(-n2nnnc2SCC(=O)Nc2ccc(C#CC3(O)CCC3)cc2Cl)c(Cl)c1 [Compound 4062] | 53 |  |  |
| O=C(CSc1nnnn1-c1ccc(C2CC2)cc1Cl)Nc1ccc(-c2ccc(OCCN3CCCC3)cc2)c(F)c1Cl [Compound 2057] |  | 8.8 |  |
| Cc1cc(C(F)(F)F)cc(-n2nnnc2SCC(=O)Nc2ccc(C#CC(C)(C)C(=O)O)cc2Cl)c1Cl [Compound 4058] | 63 |  |  |
| CC(C)(C#Cc1ccc(NC(=O)CSc2nnnn2-c2ccc(C3CC3)cc2Cl)c(Cl)c1)NS(C)(=O)=O [Compound 4076] | 17.5 |  |  |
| Cc1ccc(-n2nnnc2SCC(=O)Nc2ccc(/C=C/C(=O)O)cc2Cl)c(Cl)c1 [Compound 3006] |  | 265 |  |
| CN(C)c1ccc(CNC(=O)C(C)(C)C#Cc2ccc(NC(=O)CSc3nnnn3-c3ccc(C4CC4)cc3Cl)c(Cl)c2)cc1 [Compound 4153] | 127 |  |  |
| CC(C)(C#Cc1ccc(NC(=O)CSc2nnnn2-c2cc(C3CC3)ccc2Cl)c(Cl)c1)NC(=O)CN [Compound 4214] | 19.5 |  |  |
| CN1CCN(CC#Cc2ccc(NC(=O)CSc3nnnn3-c3ccc(C(C)(C)C)cc3Cl)c(Cl)c2)CC1 [Compound 4015] | 40 |  |  |
| CNCCOC(=O)COC(C)(C)C#Cc1ccc(NC(=O)CSc2nnnn2-c2ccc(C(C)(C)C)cc2Cl)c(Cl)c1 [Compound 4035] | 56 |  |  |
| CC(C)(C)c1ccc(-n2nnnc2SCC(=O)Nc2ccc(NC(=O)CC3CCCC3)cc2Cl)c(Cl)c1 [Compound 7023] |  |  | IC50 [2]: 255 nM |
| CC(C)(C#Cc1ccc(NC(=O)CSc2nnnn2-c2cc(C(F)(F)F)ccc2Cl)c(Cl)c1F)OCCOc1ccncc1 [Compound 4166] | 126 |  |  |
| CN(C)CCCC(=O)NC(C)(C)C#Cc1ccc(NC(=O)CSc2nnnn2-c2cc(C(F)(F)F)ccc2Cl)c(Cl)c1 [Compound 4147] | 52 |  |  |
| CC(C)C(=O)Nc1ccc(NC(=O)CSc2nnnn2-c2ccc(C(C)(C)C)cc2Cl)c(Cl)c1 [Compound 7010] |  |  | IC50 [2]: 83 nM |
| CC(C)(C#Cc1ccc(NC(=O)CSc2nnnn2-c2cc(C(F)(F)F)ccc2Cl)c(Cl)c1)OCCN1CCCC1 [Compound 4142] | 50.5 |  |  |

| Structure (SMILES) | IC50 [1] [nM] | IC50 [3] [nM] | other results |
| --- | --- | --- | --- |
| CC(C)(C)c1ccc(-n2nnnc2SCC(=O)Nc2ccc(C(=O)NC3CC3)cc2Cl)c(Cl)c1 [Compound 6002] |  | 31 |  |
| CC(C)(C)c1ccc(-n2nnnc2SCC(=O)Nc2ccc(OCC(=O)Nc3ccc(O)cc3)cc2Cl)c(Cl)c1 [Compound 5013] |  | 150 |  |
| O=C(COc1ccc(NC(=O)CSc2nnnn2-c2ccc(C3CC3)cc2Cl)c(Cl)c1)NCc1cccnc1 [Compound 5033] |  | 124 |  |
| CC(C)(C#Cc1ccc(NC(=O)CSc2nnnn2-c2cc(C3CC3)ccc2Cl)c(Cl)c1)NC(=O)c1cc[n+]([O-])cc1 [Compound 4208] | 6.9 |  |  |
| CC(C)(C)c1ccc(-n2nnnc2SCC(=O)Nc2ccc(C(=O)NCc3ccc(N)cc3)cc2Cl)c(Cl)c1 [Compound 6026] |  | 51 |  |
| CC(C)(C#Cc1ccc(NC(=O)CSc2nnnn2-c2ccc(C3CC3)cc2Cl)c(Cl)c1)NC(=O)c1cc[n+]([O-])cc1 [Compound 4086] | 12 |  |  |
| O=C(O)Cc1ccc(-c2ccc(NC(=O)CSc3nnnn3-c3ccc4ncsc4c3Cl)c(Cl)c2)cc1 [Compound 2035] |  | 269 |  |
| CC(C)(C)c1ccc(-n2nnnc2SCC(=O)Nc2ccc(S(=O)(=O)NCCO)cc2Cl)c(Cl)c1 [Compound 3027] |  | 81 |  |
| CN(C)C(=O)COC(C)(C)C#Cc1ccc(NC(=O)CSc2nnnn2-c2ccc(C(C)(C)C)cc2Cl)c(Cl)c1 [Compound 4049] | 30 |  |  |
| CC(C)(C)c1ccc(-n2nnnc2SCC(=O)Nc2ccc(NC(=O)c3cccc(O)c3)cc2Cl)c(Cl)c1 [Compound 7012] |  |  | IC50 [2]: 128 nM |
| CC(C)(C#Cc1ccc(NC(=O)CSc2nnnn2-c2ccc(C3CC3)cc2Cl)c(Cl)c1)OCCN1CCCC1=O [Compound 4182] | 58.5 |  |  |
| CC(C)(C)c1ccc(-n2nnnc2SCC(=O)Nc2ccc(OCC(=O)NCCc3ccc(O)cc3)cc2Cl)c(Cl)c1 [Compound 5016] |  | 116 |  |
| COC(C)(C)C#Cc1ccc(NC(=O)CSc2nnnn2-c2ccc(C3CC3)cc2Cl)c(Cl)c1 [Compound 4074] | 35.5 |  |  |
| COC(=O)C(C)(C)C#Cc1ccc(NC(=O)CSc2nnnn2-c2cc(C(F)(F)F)ccc2Cl)c(Cl)c1 [Compound 4077] | 44.5 |  |  |
| CC(C)(C#Cc1ccc(NC(=O)CSc2nnnn2-c2ccc(C3CC3)cc2Cl)c(Cl)c1)NCC(N)=O [Compound 4231] | 16 |  |  |
| CC(C)(C)c1ccc(-n2nnnc2SCC(=O)Nc2ccc(OCC(=O)Nc3cccc(C(=O)O)c3)cc2Cl)c(Cl)c1 [Compound 5022] |  | 106 |  |
| Cc1cc(C(F)(F)F)cc(-n2nnnc2SCC(=O)Nc2ccc(-c3ccc(CC(=O)O)cc3)cc2Cl)c1Cl [Compound 2044] |  | 29 |  |
| CC(C)(C)c1ccc(-n2nnnc2SCC(=O)Nc2ccc(OCC(=O)NCCc3ccncc3)cc2Cl)c(Cl)c1 [Compound 5024] |  | 66 |  |
| CC(C)(C)c1ccc(-n2nnnc2SCC(=O)Nc2ccc(C(=O)N3CCC(C(=O)O)CC3)cc2Cl)c(Cl)c1 [Compound 6030] |  | 919 |  |
| CC(C)(C#Cc1ccc(NC(=O)CSc2nnnn2-c2ccc(C3CC3)cc2Cl)c(Cl)c1F)OCCOc1ccncc1 [Compound 4165] | 67.5 |  |  |
| Cc1ccc(-c2c(OCC(=O)Nc3ccc(C#CC(C)(C)C(=O)O)cc3Cl)n[nH]c2C)c(Cl)c1 [Compound 1015] |  | 48 |  |
| Cc1cc(C)c(-n2nnnc2SCC(=O)Nc2ccc(C#CC(C)(C)O)cc2Cl)c(Cl)c1 [Compound 4007] | 38 |  |  |

| Structure (SMILES) | IC50 [1] [nM] | IC50 [3] [nM] | other results |
| --- | --- | --- | --- |
| CC(C)(N)C#Cc1ccc(NC(=O)CSc2nnnn2-c2ccc(C3CC3)cc2Cl)c(Cl)c1F [Compound 4151] | 22.5 |  |  |
| Cc1ccc(-n2nnnc2SCC(=O)Nc2ccc(-c3coc(C)n3)cc2Cl)c(Cl)c1 [Compound 3017] |  | 308 |  |
| CC(C)(C)c1ccc(-n2nnnc2SCC(=O)Nc2ccc(C(=O)NCc3ccc(O)c(O)c3)cc2Cl)c(Cl)c1 [Compound 6019] |  | 36 |  |
| CN(C)CCNC(=O)COC(C)(C)C#Cc1ccc(NC(=O)CSc2nnnn2-c2ccc(C(C)(C)C)cc2Cl)c(Cl)c1 [Compound 4047] | 66 |  |  |
| CC(C)(C)c1ccc(-n2nnnc2SCC(=O)Nc2ccc(NC(=O)CCc3ccccc3)cc2Cl)c(Cl)c1 [Compound 7038] |  |  | IC50 [2]: 860 nM |
| CC(C)(C)c1cc(Cl)c(-n2nnnc2SCC(=O)Nc2ccc(-c3ccc(CC(=O)O)cc3)cc2Cl)c(Cl)c1 [Compound 2020] |  | 18 |  |
| CC(C)(C#Cc1ccc(NC(=O)CSc2nnnn2-c2ccc(C(C)(C)C)cc2Cl)c(Cl)c1)OCC(=O)Nc1ccon1 [Compound 4054] | 35 |  |  |
| CC(C)(C)c1ccc(-n2nnnc2SCC(=O)Nc2ccc(OCC(=O)NCc3ccc(C(=O)O)cc3)cc2Cl)c(Cl)c1 [Compound 5027] |  | 51 |  |
| CN1CCC[C@H]1C(=O)NC(C)(C)C#Cc1ccc(NC(=O)CSc2nnnn2-c2ccc(C3CC3)cc2Cl)c(Cl)c1 [Compound 4110] | 11.5 |  |  |
| CC(C)(C#Cc1ccc(NC(=O)CSc2nnnn2-c2cc(C(F)(F)F)ccc2Cl)c(Cl)c1)C(=O)O [Compound 4196] | 198 |  |  |
| CN(C)CCCC(=O)NC(C)(C)C#Cc1ccc(NC(=O)CSc2nnnn2-c2ccc(C3CC3)cc2Cl)c(Cl)c1F [Compound 4156] | 36.5 |  |  |
| CC(C)(C#Cc1ccc(NC(=O)CSc2nnnn2-c2ccc(C(C)(C)C)cc2Cl)c(Cl)c1)OCC(=O)N1CCOCC1 [Compound 4039] | 40 |  |  |
| CC(C)(C#Cc1ccc(NC(=O)CSc2nnnn2-c2ccc(C3CC3)cc2Cl)c(Cl)c1)NC(=O)C1(C(=O)O)CC1 [Compound 4233] | 9.35 |  |  |
| Cc1ccc(-n2nnnc2SCC(=O)Nc2ccc(-c3ccc(OCC(=O)O)cc3)cc2Cl)c(Cl)c1 [Compound 2007] |  | 22 |  |
| CC(C)(C)c1ccc(-n2nnnc2SCC(=O)Nc2ccc(S(=O)(=O)NCC(=O)O)cc2Cl)c(Cl)c1 [Compound 3032] |  | 97.5 |  |
| CC(C)(C#Cc1ccc(NC(=O)CSc2nnnn2-c2ccc(C3CC3)cc2Cl)c(Cl)c1)NC(=O)CN1CCCC1 [Compound 4123] | 38 |  |  |
| CC(C)(C)c1ccc(-n2nnnc2SCC(=O)Nc2ccc(C#CCCC(=O)O)cc2Cl)c(Cl)c1 [Compound 4102] | 24.5 |  |  |
| CC(C)(O)C#Cc1ccc(NC(=O)CSc2nnnn2-c2ccc(C3CC3)cc2Cl)c(Br)c1 [Compound 4078] | 13.5 |  |  |
| CC(C)(C#Cc1ccc(NC(=O)CSc2nnnn2-c2ccc(C3CC3)cc2Cl)c(Cl)c1)NC(=O)c1ccncc1 [Compound 4085] | 12 |  |  |
| CC(C)(C#Cc1ccc(NC(=O)CSc2nnnn2-c2ccc(C(C)(C)C)cc2Cl)c(Cl)c1)OCC(=O)Nc1ccc(/C=C/C(=O)O)cc1 [Compound 4026] | 63 |  |  |
